Reference: ChEMBL document CHEMBL1781914, “Syntheses and initial evaluation of a series of indolo-fused heterocyclic inhibitors of the polymerase enzyme (NS5B) of the hepatitis C virus” (Bioorg Med Chem Lett, 2011)

Experiments:
[1] = Drug clearance in rat at 2 mg/kg, iv; format: ADME, organism-based; parameters: dose 2 mg/kg, route intravenous; details: in vivo
Hepatitis C virus [2] = assay: Inhibition of HCV genotype 1b NS5B polymerase expressed in Escherichia coli BL21(DE3) after 60 mins by FRET assay; parameters: species or system Hepatitis C virus subtype 1b; details: BL21-DE3, 1 h
[3] = Oral bioavailability in rat; format: ADME, organism-based; details: in vivo
Hepatitis C virus [4] = assay: Antiviral activity against HCV infected in human Huh7 cells assessed as inhibition of viral replication by luciferase assay; format: functional, organism-based, Hepacivirus hominis; details: Huh-7
[5] = AUC in iv and po dosed rat; format: ADME, organism-based; details: plasma

Structure (SMILES)	clearance [1] [L/h/kg]	IC50 (Hepatitis C virus [2]) [µM]	bioavailability [3] [%]	EC50 (Hepatitis C virus [4]) [µM]	AUC [5] [nM·h]
O=C(O)c1ccc2c(C3CCCCC3)c3n(c2c1)CCOc1ccccc1-3	–	0.69	–	0.59	–
O=C1Cn2c(c(C3CCCCC3)c3ccc(C(=O)O)cc32)-c2ccccc2N1	–	0.07	17.6	0.24	–
O=C(O)/C=C/c1ccc(OC(=O)C2(NC(=O)c3ccc4c(C5CCCCC5)c5n(c4c3)CCOc3ccccc3-5)CCCC2)cc1	1.02	0.03	5	0.01	790
O=C(O)/C=C/c1ccc(OC(=O)C2(NC(=O)c3ccc4c(C5CCCCC5)c5n(c4c3)CC(=O)Nc3ccccc3-5)CCCC2)cc1	0.78	0.02	3	0.01	660
O=C(O)c1ccc2c(C3CCCCC3)c3n(c2c1)CCCc1ccccc1-3	–	0.84	–	0.7	–

Further molecules by falling IC50 (Hepatitis C virus [2]), results first:

clearance [1] [L/h/kg]	IC50 (Hepatitis C virus [2]) [µM]	bioavailability [3] [%]	EC50 (Hepatitis C virus [4]) [µM]	AUC [5] [nM·h]	Structure (SMILES)
–	0.6	–	0.27	–	O=C(O)c1ccc2c(C3CCCCC3)c3n(c2c1)CCCCNc1ccccc1-3
0.522	0.09	12.3	0.02	3610	O=C(O)/C=C/c1ccc(OC(=O)C2(NC(=O)c3ccc4c(C5CCCCC5)c5n(c4c3)CCCCNc3ccccc3-5)CCCC2)cc1
15	0.03	8	0.02	280	O=C(O)/C=C/c1ccc(OC(=O)C2(NC(=O)c3ccc4c(C5CCCCC5)c5n(c4c3)CCCc3ccccc3-5)CCCC2)cc1
